{"source": "paper PMC3565751", "about": "“The Feasibility of Enzyme Targeted Activation for Amino Acid/Dipeptide Monoester Prodrugs of Floxuridine; Cathepsin D as a Potential Targeted Enzym” (Molecules, 2012)", "key": {"human cathepsin D": {"molecular_target": "T1, human cathepsin D (Homo sapiens, UniProt P07339)", "T1 construct": "cathepsin B (human liver), and cathepsin D (human liver) were obtained from Sigma Chemical Co; purchased Sigma Chemical Co (St. Louis, MO, USA); host or cells: human liver (tissue-derived)", "T1 sequence (P07339 169-412 limits assumed)": "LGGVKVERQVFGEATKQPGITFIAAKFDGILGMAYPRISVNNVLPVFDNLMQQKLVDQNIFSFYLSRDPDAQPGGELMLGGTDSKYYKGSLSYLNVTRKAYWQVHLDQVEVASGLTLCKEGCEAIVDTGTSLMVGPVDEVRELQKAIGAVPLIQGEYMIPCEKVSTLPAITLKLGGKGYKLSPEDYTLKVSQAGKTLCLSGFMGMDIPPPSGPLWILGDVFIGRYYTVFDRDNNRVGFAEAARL", "T1 sequence (P07339 65-162 limits assumed)": "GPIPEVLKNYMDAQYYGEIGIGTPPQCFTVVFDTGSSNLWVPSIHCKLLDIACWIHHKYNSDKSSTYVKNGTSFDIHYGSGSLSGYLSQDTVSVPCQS", "assay": "Prodrug stability with human cathepsin D", "assay_type": "biochemical", "details": "pH 7.4 phosphate buffer, 37 °C, 200 µM substrate", "source_text": "(§1) The high expression levels of cathepsins in tumors have been reported. It has been investigated if the protein levels of cathepsin B and D would associate with pathological parameters in order to assess the difference in protein levels of cathepsins as possible tumor biomarkers. Cathepsin B, one of the highest gene expressions in enzymes of Capan-2 cell, is a cysteine endopeptidase and reportedly has similar activity to carboxypeptidase and peptidyl-dipeptidase. On the other hand, cathepsin D has been reported that it preferentially hydrolyzes the peptide bond of bulky hydrophobic amino acids and the peptide bond between Phe-Phe of Bz-Arg-Gly-Phe-Phe-Pro-4MbNA [75, 76, 77]. The metabolic stability of floxuridine prodrugs was assessed using human cathepsin B and D in pH 7.4 phosphate buffer. […] However, the enzyme specificity between cathepsin B and D in prodrug activation for those two prodrugs was not observed.\n(§2) Prodrug stability with Cathepsin B and D. Lyophilized enzyme powder was dissolved and adjusted to 2.5 mg/mL of pure enzyme, human cathepsin B and D. The hydrolysis reactions were immediately started by adding substrates (200 µM) in 96-well plates (Corning). The reactions were carried out at 37 °C for 120 min (time points; 0, 5, 10, 30, 60, and 120 min). At each time point, aliquot sample (35 µL) was removed and added to 150 µL of acetonitrile (ACN) with 0.1% TFA. The mixtures were filtered with a 0.45 µm filters at 1,000 × g for 10 min at 4 °C. The filtrate was then analyzed via reverse-phase HPLC.\n(§3) The initial rates of hydrolysis were used to obtain the apparent first-order rate constants and estimate the half-lives. The apparent first-order degradation rate constants of various floxuridine prodrugs at 37 °C were determined by plotting the logarithm of prodrug remaining as a function of time. […]\n(§4) The concentrations of prodrugs and their metabolites were determined on a Waters HPLC system (Waters, Inc., Milford, MA, USA). […] Standard curves generated for each prodrug and their parent drugs were used for quantitation of integrated area under peaks."}, "[1]": {"system": "Capan-2 cell homogenates and cytosolic enzyme extracts", "assay": "Prodrug stability in cytosolic enzyme extract versus whole cell homogenate of Capan-2 cells", "assay_type": "in vitro ADME", "protocol": "In stability studies of test compounds in cell homogenates, the location of enzymes in living cells is not considered and the inaccessible enzymes in vivo condition may be able to degrade those analytes in this in vitro setting. Therefore, the result of prodrug stabilities in cell homogenate may be different to one in vivo, where all enzymes are arranged in all specific locations. The experiments of prodrug activation concerning the location of enzymes in cells were performed at 37 °C in Capan-2 cell homogenates and in cytosolic enzyme extracts. For the comparison purpose, the same experiments were performed at 37 °C in Caco-2 cell homogenates and in cytosolic enzyme extracts. […] The difference between them was minimal (1.4- to 2.5 fold). […] In Capan-2 cells, the stabilities of 5′-O-L-phenylalanyl-L-glycylfloxuridine and 5′-O-L-phenylalanylfloxuridine were improved 7.4- and 7.3-fold, while the ones of 5′-O-L- phenylalanyl-L-tyrosylfloxuridine and 5′-O-L-glycyl-L-leucylfloxuridine were declined 3.9- and 6.0-fold, respectively.\n(§5) Preparation of Cytosolic Enzyme Extract. Confluent Caco-2 cells and Capan-2 cells (2 plates; 150 mm × 25 mm plate) were rinsed with saline twice. The cells were washed off with 1 mL of pH 7.4 phosphate buffer (10 mmol/L) and the enzymes were extracted through 30 gauge needle 10 times in ice-cold bath. Cell suspension was spun at 10,000 × g for 2 h at 4 °C and the supernatant was spun at 39,000 × g for 2 h at 4 °C. Protein amount was quantified with the Bio-Rad (Hercules, CA, USA) DC Protein Assay using bovine serum albumin as a standard. The protein amount was adjusted to 500 µg/mL and the hydrolysis reactions were carried out in 96-well plates (Corning). Caco-2 cells and Capan-2 cell suspensions (250 µL) were placed in triplicate wells either presence or absence of various inhibitors, the reactions were started with the addition of substrate (200 µM), and wells were incubated at 37 °C for 120 min (time points; 0, 5, 10, 30, 60, and 120 min). At each time point, aliquot sample (35 µL) was removed and added to 150 µL of acetonitrile (ACN) with 0.1% TFA to prevent the further degradation. The mixtures were filtered with a 0.45 µm filters at 1,000 × g for 10 min at 4 °C. The filtrate wasthen analyzed via reverse-phaseHPLC.\n(§6) The initial rates of hydrolysis were used to obtain the apparent first-order rate constants and estimate the half-lives. The apparent first-order degradation rate constants of various floxuridine prodrugs at 37 °C were determined by plotting the logarithm of prodrug remaining as a function of time. The slopes of these plots are related to the rate constant, k, and given by:\n(§7) The concentrations of prodrugs and their metabolites were determined on a Waters HPLC system (Waters, Inc., Milford, MA, USA). The HPLC system consisted of two Waters pumps (model 515), a Waters autosampler (WISP model 712), and a Waters UV detector (996 photodiode array detector). The system was controlled by Waters Millennium 32 software (version 3.0.1). Samples were injected onto a Waters Xterra C18 reverse-phase column (5 µm, 4.6 × 250 mm) equipped with a guard column. The compounds were eluted using gradient method. All prodrugs were run with the solvent B gradient changing 0% to 56% at a rate of 2%/min during a 28-min run. Standard curves generated for each prodrug and their parent drugs were used for quantitation of integrated area under peaks."}, "human cathepsin B": {"molecular_target": "T2, human cathepsin B (Homo sapiens, UniProt P07858)", "T2 construct": "cathepsin B (human liver), and cathepsin D (human liver) were obtained from Sigma Chemical Co; purchased Sigma Chemical Co (St. Louis, MO, USA); host or cells: human liver (tissue-derived)", "assay": "Prodrug stability with human cathepsin B", "assay_type": "biochemical", "details": "pH 7.4 phosphate buffer, 37 °C, 200 µM substrate", "source_text": "as §1, §2, §3, §4"}, "Capan-2 cell homogenate": {"system": "Capan-2 cell homogenate", "assay": "Prodrug hydrolysis in Capan-2 cell homogenate with the presence and the absence of selective enzyme inhibitors", "assay_type": "in vitro ADME", "details": "37 °C", "protocol": "Hydrolysis StudiesPreparation of Capan-2 cell homogenates. Preparation of cell homogenates has been reported previously. Confluent Capan-2 cells (2 plates; 150 mm × 25 mm plate) were rinsed with saline twice. The cells were washed off with 5 mL of pH 7.4 phosphate buffer (10 mmol/L) and the lysed cells by ultrasonication (Micro ultrasonic cell disrupter Model KT40, Kontes, Vineland, NJ, USA) were spun down by centrifugation.\nas §5, §6\nk = 2.303 × slope (log C vs. time) (1)\nThe degradation half-lives were then estimated by the equation: […]\nas §7"}, "[2]": {"set-up": "method as in PMID 18719516", "details": "pH 7.4 phosphate buffer; mean ± s.d.; ref [50]; cited from earlier work"}, "Capan-2 cell lines": {"system": "Capan-2 cell lines", "assay": "Cell proliferation (XTT) assay", "assay_type": "cell-based", "details": "4 mmol/L, 4 h drug treatment", "protocol": "The percentage of growth inhibition for amino acid/dipeptide monoester prodrugs of floxuridine in Capan-2 cell was evaluated via 2,3-bis[2-methoxy-4-nitro-5-sulfophenyl]-2H-tetrazolium-5-carboxanilideinner salt (XTT) assays (Figure 3). The growth inhibitory effect of tested floxuridine prodrugs after 4 h drug treatment range from 0.0–91.1% at 4 h, 0.0–84.2% at 8 h, and 41.8–84.8% at 24 h in Capan-2 cell lines. […] While specific activation enzymes for 5′-O-L-leucyl-L-glycylfloxuridine and 5′-O-L-phenylalanylfloxuridine have not been identified, those enzymes may be highly localized at the plasma membrane and cytosol. Thus, the activation of those prodrugs took place immediately after translocation of prodrugs into the cells and started inhibiting tumor growth. Leucine and phenylalanine are reportedly good substrates for aminopeptidases and carboxylesterase, respectively.\nCell proliferation studies were conducted with Capan-2 cell lines. The cells were seeded into 96-well plates at […] per well and allowed to attach/grow for 24 h before drug solutions were added. The culture medium (RPMI-1640 + 10% fetal bovine serum) was removed and the cells were gently washed once with sterile pH 6.0 uptake buffer (145 mM NaCl, 0.5 mM MgCl2, 1 mM NaH2PO4, 1 mM CaCl2, 3 mM KCl, 5 mM glucose, and 5 mM MES). Floxuridine prodrugs and floxuridine were diluted in pH 6.0 uptake buffer to 4 mmol/L using no drug as a 100% viability control. The wash buffer was removed and 25 µL drug solution per well were added and incubated at 37 °C for 4 h in the cell incubator. After this time, the drug solutions were removed and the cells were again gently washed twice with sterile uptake buffer. RPMI-1640 was then added to each well after washing. The cells were allowed to recover for 4 h, 8 h, or 24 h before evaluating cell viability via 2,3-bis[2-methoxy-4-nitro-5-sulfophenyl]-2H-tetrazolium-5-carboxanilide inner salt (XTT) assays. […] Absorbance readings at 450 nm were recorded."}}}
{"smiles": "N[C@@H](Cc1ccccc1)C(=O)NCC(=O)OC[C@H]1O[C@@H](n2cc(F)c(=O)[nH]c2=O)C[C@@H]1O", "note": "[5'-O-L-phenylalanyl-L-glycyl-floxuridine]", "values": [{"measurement": "Stability (degradation) against cathepsin D compared with absence of enzyme", "setting": "human cathepsin D", "result": "significant degradation"}, {"measurement": "Hydrolysis products detected in cell homogenates and cytosolic enzyme extracts", "setting": "[1]", "result": "only floxuridine was detected"}, {"measurement": "Fold longer half life (stability improved) in cytosolic extract than in Capan-2 cell homogenate", "setting": "[1]; 37 °C, pH 7.4 phosphate buffer", "result": 7.4, "unit": "fold"}, {"measurement": "Stability (degradation) against cathepsin B compared with absence of enzyme", "setting": "human cathepsin B", "result": "significant degradation"}, {"measurement": "Half Life, DPP 3 Inhibitor", "setting": "Capan-2 cell homogenate; Capan-2 cell homogenate with 1,10-phenanthroline, pH 7.4", "result": "30.1 ± 10.0", "unit": "min"}, {"measurement": "Half Life, TPP 2 Inhibitor", "setting": "Capan-2 cell homogenate; Capan-2 cell homogenate with H-Ala-Ala-Phe-CMK CF3CO2H, pH 7.4", "result": "19.6 ± 0.4", "unit": "min"}, {"measurement": "Half Life, Cathepsin D Inhibitor", "setting": "Capan-2 cell homogenate; Capan-2 cell homogenate with pepstatin A, pH 7.4", "result": "10.2 ± 3.0", "unit": "min"}, {"measurement": "Half Life, Aminopeptidase Inhibitor", "setting": "Capan-2 cell homogenate; Capan-2 cell homogenate with puromycin, pH 7.4", "result": "25.7 ± 0.4", "unit": "min"}, {"measurement": "Half Life, Capan-2 Cell Homogenate", "setting": "Capan-2 cell homogenate; no inhibitor, pH 7.4 phosphate buffer, 200 µM substrate, mean ± s.d.", "result": "4.3 ± 0.9", "unit": "min"}, {"measurement": "Half Life, Phosphate Buffer pH 7.4", "setting": "[2]", "result": "132.1 ± 10.2", "unit": "min"}, {"measurement": "Growth inhibition of cancer cells at 4 h and 8 h", "setting": "Capan-2 cell lines", "result": "did not exhibit the growth inhibition of cancer cells"}]}
